# Reference: paper PMC5053523, “In Vitro Antibacterial Activity of Rhodanine Derivatives against Pathogenic Clinical Isolates” (PLoS ONE, 2016)
# Like-named read-outs stand apart in the source and are kept apart here.
# Columns and labels:
# P. aeruginosa = test: Broth microdilution MIC, P. aeruginosa; type: cell-based; settings: Pseudomonas aeruginosa
# Acinetobacter baumannii [1] = test: MIC with/without PMBN, Acinetobacter baumannii; type: cell-based
# Description: (§1) The MIC of the rhodanines and control antibiotics, in the presence of a sub-inhibitory concentration of colistin or polymixin B nonapeptide (PMBN), against Gram-negative bacteria was evaluated as described before. The antibacterial activity of the rhodanines was further investigated against E. coli SM1411Δ acrAB, a strain that is deficient in the multidrug-resistant AcrAB efflux pump, as described before.
# [2] = test system: methicillin-resistant Staphylococcus aureus (MRSA); test: Broth microdilution MIC/MBC, MRSA; type: cell-based; settings: for MIC50 / MIC90: 11 MRSA strains
# [3] = test system: vancomycin resistant enterococci (VRE); test: Broth microdilution MIC50/MIC90, VRE panel; type: cell-based; settings: Enterococcus, 10 VRE strains; for MIC90: VRE, read-out: MIC 90; for MIC50: read-out: MIC 50
# Pseudomonas aeruginosa [4] = test: MIC with/without sub-MIC colistin, Pseudomonas aeruginosa; type: cell-based
# Description: as §1
# Pseudomonas aeruginosa [5] = test: MIC with/without PMBN, Pseudomonas aeruginosa; type: cell-based
# Description: as §1
# MRSA USA300 = test: MIC against MRSA USA300 with and without 4% human serum albumin; type: cell-based, Staphylococcus aureus; settings: Staphylococcus aureus, read-out: MIC against MRSA USA300
# Procedure, shortened: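 Broth microdilution MIC per CLSI against MRSA USA300, run in tryptic soy broth alone and with 4% human serum albumin. MIC is the lowest concentration inhibiting growth.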
# [6] = test system: vancomycin resistant enterococci (VRE) E. faecalis; test: Broth microdilution MIC/MBC, VRE E. faecalis; type: cell-based; settings: for MIC: read-out: MIC
# K. pneumoniae = test: Broth microdilution MIC, K. pneumoniae; type: cell-based
# Salmonella Typhimurium [7] = test: MIC with/without PMBN, Salmonella Typhimurium; type: cell-based
# Description: as §1
# Bacillus anthracis = test: microbe, parasite or virus in culture; type: cell-based
# Klebsiella pneumoniae = test: MIC with/without PMBN, Klebsiella pneumoniae; type: cell-based
# Description: as §1
# Salmonella Typhimurium [8] = test: MIC with/without sub-MIC colistin, Salmonella Typhimurium; type: cell-based
# Description: as §1
# Acinetobacter baumannii [9] = test: Broth microdilution MIC, Acinetobacter baumannii; type: cell-based
# [10] = Acinetobacter baumannii ATCC BAA747, PMBN (+) 4 μg/mL, read-out: MIC
# [11] = Acinetobacter baumannii ATCC BAA19606, PMBN (+) 4 μg/mL, read-out: MIC
# [12] = Acinetobacter baumannii, ATCCBAA747
# [13] = Acinetobacter baumannii, ATCCBAA19606
# [14] = Pseudomonas aeruginosa ATCC 921, colistin (+) […], read-out: MIC
# [15] = Pseudomonas aeruginosa, ATCC921
# [16] = Pseudomonas aeruginosa ATCC 9721, PMBN (+) 4 μg/mL, read-out: MIC
# [17] = Pseudomonas aeruginosa, ATCC9721
# [18] = E. faecalis NR31972 Strain SF 28073
# [19] = Salmonella Typhimurium ATCC 700720, PMBN (+) 4 μg/mL, read-out: MIC
# [20] = Salmonella enterica, ATCC 700720 / TYPHIMURIUM
# [21] = Klebsiella pneumoniae ATCC BAA 1706, PMBN (+) 4 μg/mL
# [22] = Klebsiella pneumoniae ATCC BAA 2146, PMBN (+) 4 μg/mL
# [23] = Salmonella Typhimurium ATCC 700720, colistin (+) […], read-out: MIC
smiles,measurement,setting,value
O=C(O)[C@@H](Cc1ccccc1)N1C(=O)/C(=C/c2cccc(Oc3ccc(F)cc3)c2)SC1=S [Rh 4],MIC,P. aeruginosa; ATCC9721,> 128 µM
same,MIC,P. aeruginosa; ATCC15442,> 128 µM
same,MIC,Acinetobacter baumannii [1]; [10],>64 µM
same,MIC,Acinetobacter baumannii [1]; [11],>64 µM
same,MIC,Acinetobacter baumannii [1]; [12],> 128 µM
same,MIC,Acinetobacter baumannii [1]; [13],> 128 µM
same,MIC50,[2],16 µM
same,MIC90,[2],32 µM
same,MBC,[2]; MRSA NRS 1,32 µM
same,MIC,[2]; MRSA NRS 1,16 µM
same,MBC,[2]; MRSA NRS 19,32 µM
same,MIC,[2]; MRSA NRS 19,16 µM
same,MBC,[2]; MRSA NRS 37,32 µM
same,MIC,[2]; MRSA NRS 37,32 µM
same,MBC,[2]; MRSA NRS 107,32 µM
same,MIC,[2]; MRSA NRS 107,16 µM
same,MBC,[2]; MRSA NRS 119,32 µM
same,MIC,[2]; MRSA NRS 119,16 µM
same,MBC,[2]; MRSA NRS 382,16 µM
same,MIC,[2]; MRSA NRS 382,16 µM
same,MBC,[2]; MRSA NRS 383,32 µM
same,MIC,[2]; MRSA NRS 383,32 µM
same,MBC,[2]; MRSA NRS 384,64 µM
same,MIC,[2]; MRSA NRS 384,16 µM
same,MBC,[2]; MRSA NRS 385,32 µM
same,MIC,[2]; MRSA NRS 385,16 µM
same,MBC,[2]; MRSA NRS 386,> 64 µM
same,MIC,[2]; MRSA NRS 386,16 µM
same,MBC,[2]; MRSA NRS 387,64 µM
same,MIC,[2]; MRSA NRS 387,16 µM
same,MIC90,[3],32 µM
same,MIC50,[3],32 µM
same,MIC,Pseudomonas aeruginosa [4]; [14],>64 µM
same,MIC,Pseudomonas aeruginosa [4]; [15],> 128 µM
same,MIC,Pseudomonas aeruginosa [5]; [16],>64 µM
same,MIC,Pseudomonas aeruginosa [5]; [17],> 128 µM
same,MIC,"MRSA USA300; 24 h, Media TSB + 4% HSA",> 64 µM
same,MIC,MRSA USA300; Media TSB,16 µM
same,MBC,[6]; E. faecalis ERV103 HM-934,32 µM
same,MIC,[6]; E. faecalis ERV103 HM-934,32 µM
same,MBC,[6]; [18],32 µM
same,MIC,[6]; [18],32 µM
same,MBC,[6]; E. faecalis R712 HM-335,32 µM
same,MIC,[6]; E. faecalis R712 HM-335,16 µM
same,MBC,[6]; E. faecalis S613 HM-334,32 µM
same,MIC,[6]; E. faecalis S613 HM-334,32 µM
same,MBC,[6]; E. faecalis TX0104 HM-201,32 µM
same,MIC,[6]; E. faecalis TX0104 HM-201,32 µM
same,MIC,K. pneumoniae; K. pneumoniae NR-15417,>128 µM
same,MIC,K. pneumoniae; Klebsiella pneumoniae,> 128 µM
same,MIC,Salmonella Typhimurium [7]; [19],>128 µM
same,MIC,Salmonella Typhimurium [7]; [20],> 128 µM
same,MBC,Bacillus anthracis; Bacillus anthracis AMES35,4 µM
same,MIC,Bacillus anthracis; Bacillus anthracis AMES35,4 µM
same,MBC,Bacillus anthracis; Bacillus anthracis UM23,4 µM
same,MIC,Bacillus anthracis; Bacillus anthracis UM23,4 µM
same,MBC,Bacillus anthracis; Bacillus anthracis Weybridge,4 µM
same,MIC,Bacillus anthracis; Bacillus anthracis Weybridge,4 µM
same,MIC,Klebsiella pneumoniae; [21],>64 µM
same,MIC,Klebsiella pneumoniae; [22],>64 µM
same,MIC,"Klebsiella pneumoniae; Klebsiella pneumoniae, BAA1706",> 128 µM
same,MIC,"Klebsiella pneumoniae; Klebsiella pneumoniae, BAA2146",> 128 µM
same,MIC,Salmonella Typhimurium [8]; [23],>64 µM
same,MIC,Salmonella Typhimurium [8]; [20],> 128 µM
same,MIC,Acinetobacter baumannii [9]; ATCC13345,> 128 µM
same,MIC,Acinetobacter baumannii [9]; ATCC17786,> 128 µM
O=C(O)[C@H](Cc1ccccc1)N1C(=O)/C(=C/c2cccc(-c3ccccc3)c2)SC1=S [Rh 5],MIC,P. aeruginosa; ATCC9721,> 128 µM
same,MIC,P. aeruginosa; ATCC15442,> 128 µM
same,MIC,Acinetobacter baumannii [1]; [10],>64 µM
same,MIC,Acinetobacter baumannii [1]; [11],>64 µM
same,MIC,Acinetobacter baumannii [1]; [12],> 128 µM
same,MIC,Acinetobacter baumannii [1]; [13],> 128 µM
same,MIC50,[2],8 µM
same,MIC90,[2],16 µM
same,MBC,[2]; MRSA NRS 1,16 µM
same,MIC,[2]; MRSA NRS 1,8 µM
same,MBC,[2]; MRSA NRS 19,16 µM
same,MIC,[2]; MRSA NRS 19,8 µM
same,MBC,[2]; MRSA NRS 37,16 µM
same,MIC,[2]; MRSA NRS 37,16 µM
same,MBC,[2]; MRSA NRS 107,16 µM
same,MIC,[2]; MRSA NRS 107,16 µM
same,MBC,[2]; MRSA NRS 119,8 µM
same,MIC,[2]; MRSA NRS 119,8 µM
same,MBC,[2]; MRSA NRS 382,8 µM
same,MIC,[2]; MRSA NRS 382,8 µM
same,MBC,[2]; MRSA NRS 383,16 µM
same,MIC,[2]; MRSA NRS 383,16 µM
same,MBC,[2]; MRSA NRS 384,64 µM
same,MIC,[2]; MRSA NRS 384,8 µM
same,MBC,[2]; MRSA NRS 385,16 µM
same,MIC,[2]; MRSA NRS 385,8 µM
same,MBC,[2]; MRSA NRS 386,64 µM
same,MIC,[2]; MRSA NRS 386,8 µM
same,MBC,[2]; MRSA NRS 387,8 µM
same,MIC,[2]; MRSA NRS 387,8 µM
same,MIC90,[3],16 µM
same,MIC50,[3],16 µM
same,MIC,Pseudomonas aeruginosa [4]; [14],>64 µM
same,MIC,Pseudomonas aeruginosa [4]; [15],> 128 µM
same,MIC,Pseudomonas aeruginosa [5]; [16],>64 µM
same,MIC,Pseudomonas aeruginosa [5]; [17],> 128 µM
same,MIC,"MRSA USA300; 24 h, Media TSB + 4% HSA",> 64 µM
same,MIC,MRSA USA300; Media TSB,16 µM
same,MBC,[6]; E. faecalis ERV103 HM-934,16 µM
same,MIC,[6]; E. faecalis ERV103 HM-934,16 µM
same,MBC,[6]; [18],16 µM
same,MIC,[6]; [18],16 µM
same,MBC,[6]; E. faecalis R712 HM-335,16 µM
same,MIC,[6]; E. faecalis R712 HM-335,8 µM
same,MBC,[6]; E. faecalis S613 HM-334,16 µM
same,MIC,[6]; E. faecalis S613 HM-334,16 µM
same,MBC,[6]; E. faecalis TX0104 HM-201,16 µM
same,MIC,[6]; E. faecalis TX0104 HM-201,16 µM
same,MIC,K. pneumoniae; K. pneumoniae NR-15417,>128 µM
same,MIC,K. pneumoniae; Klebsiella pneumoniae,> 128 µM
same,MIC,Salmonella Typhimurium [7]; [19],>128 µM
same,MIC,Salmonella Typhimurium [7]; [20],> 128 µM
same,MBC,Bacillus anthracis; Bacillus anthracis AMES35,2 µM
same,MIC,Bacillus anthracis; Bacillus anthracis AMES35,2 µM
same,MBC,Bacillus anthracis; Bacillus anthracis UM23,2 µM
same,MIC,Bacillus anthracis; Bacillus anthracis UM23,2 µM
same,MBC,Bacillus anthracis; Bacillus anthracis Weybridge,4 µM
same,MIC,Bacillus anthracis; Bacillus anthracis Weybridge,2 µM
same,MIC,Klebsiella pneumoniae; [21],>64 µM
same,MIC,Klebsiella pneumoniae; [22],>64 µM
same,MIC,"Klebsiella pneumoniae; Klebsiella pneumoniae, BAA1706",> 128 µM
same,MIC,"Klebsiella pneumoniae; Klebsiella pneumoniae, BAA2146",> 128 µM
same,MIC,Salmonella Typhimurium [8]; [23],>64 µM
same,MIC,Salmonella Typhimurium [8]; [20],> 128 µM
same,MIC,Acinetobacter baumannii [9]; ATCC13345,> 128 µM
same,MIC,Acinetobacter baumannii [9]; ATCC17786,> 128 µM
